In one assay the test system is naïve CD4+ T-cells. The assay is described as follows: ELISPOT, naïve CD4+ T cells stimulated with anti-CD3-Ig and anti-CD28-Ig. It is filed as cell-based, mouse. The conditions noted are these: for anti-CD3-Ig/anti-CD28-Ig-mediated IFN-γ production: 100 μM oATP combined with 50 μM NF-449 and 50 μM 5-BDBD. As for the experimental part: The effect of P2X7R targeting was tested by treatment with oATP during T-cell activation. […] Similarly, in a T-cell proliferation assay, CFSE-labeled naïve CD4^+ T-cells were stimulated for 4 days with 0.5 μg/ml anti-CD3-Ig and anti-CD28-Ig; treatment with 100 μM oATP diminished CD4^+ T-cell proliferation (FIG. 5B, right panel) compared to controls (FIG. 5B, left panel).
To address the mechanisms underlying P2X7R targeting mediated inhibition of cardiac transplant rejection, the inventors analyzed the effect of P2X7R targeting on T-cell activation and Th1/Th17 differentiation in vitro. […] The effect of in vitro P2X7R targeting with oATP during CD4+ T-cell activation was tested. […] Second, in a T-cell proliferation assay, carboxyfluorescein diacetate succinimidyl ester-labeled naïve CD4+ T cells were stimulated for 96 hours with 0.5 μg/mL anti-CD3-Ig and anti-CD28-Ig, and treatment with 100 μM oATP diminished CD4+ T cell proliferation in comparison with controls. […] The inventors next tested the effect of in vitro P2X7R targeting during a Th1/Th17 generation and differentiation assay. […] P2X7R targeting with oATP inhibited Th0 conversion into both Th1 and Th17, as assessed by the percentage of IFN-γ+ and IL-17+ cells, respectively. The inventors show, therefore, that P2X7R targeting through oATP suppresses activation, proliferation, and Th1/Th17 differentiation of CD4+ T cells. The inventors then further investigated the role of P2X7R on T-cell activation and Th1/Th17 differentiation by genetic upregulation of P2X7R. P2X7R cDNA was transduced by using a pMY-IRES-GFP retroviral vector into CD4+ T cells (pmY-P2X7R CD4+ T cells), and upregulation of P2X7R expression was confirmed by Western blot. pmY-P2X7R CD4+ T cells were then challenged with anti-CD3-Ig/anti-CD28-Ig stimulation in an ELISPOT assay. […] In a Th1/Th17 generation assay, pmY-P2X7R CD4+ T cells seemed to display increased differentiation capacity in comparison with pmY-mock CD4+ T cells, as assessed by T-bet and ROR-γ expression.
(§1) Several key components of T-cell receptor signaling involved in the alloimmune response were examined, and the phosphorylation kinetics following in vitro anti-CD3-Ig/anti-CD28-Ig-mediated CD4+ T-cell activation was evaluated by using the Luminex assay. […] The inventors first confirmed that Colivelin (Col) was able to restore the activation-induced phosphorylation of STAT3 in a dose-dependent manner in oATP-treated CD4+ T cells by Western blotting. […] The effect of oATP and Colivelin on STAT3 phosphorylation and T-cell function was also evaluated following cardiac transplantation.

In the next assay the test system is C57BL/6 splenocytes. The assay is described as follows: In vitro alloimmune ELISPOT, C57BL/6 responder splenocytes vs irradiated BALB/c splenocytes. The conditions noted are these: selective P2X1R / P2X3R inhibitors. In kind it is cell-based, mouse. From the text:
The effect of increasing doses of oATP on Th1/Th17 cytokine levels was next tested. A dose-dependent response was evident, in which oATP reduced the number of cells producing Th1 cytokines (IFN-γ and IL-2) and Th17 cytokines (IL-6 and IL-17). Because it has been reported that oATP may affect other P2XRs, the inventors made use of the availability of the selective P2X1R inhibitor NF 449 and of the selective P2X3R inhibitor NF 110. C57BL/6 splenocytes were stimulated with irradiated BALB/c splenocytes, and IFN-γ production was evaluated in the presence of these inhibitors.

Assay [1] relates to C57BL/6 mice transplanted with BALB/c islets. In words: Allogeneic islet transplantation, BALB/c islets into diabetic C57BL/6 mice: graft survival. It is filed as in vivo, mouse. The note with it: oATP daily i.p. 14-15 days, rapamycin 0.1 mg/kg 10 days.
Assay [2] relates to STAT3. The assay is described as follows: Phosphorylation of T-cell signaling molecules in activated CD4+ T cells (Luminex/Milliplex, Western blot). It is filed as cell-based, mouse. The conditions noted are these: Colivelin add-back, Western blot. As for the experimental part:
60 minutes after anti-CD3-Ig and anti-CD28-Ig mediated activation, cells were lysed and the phosphorylation status of CREB, Erk, Akt, JNK, p38, p70 S6 Kinase, STAT3, and STAT5A/B was assessed using the Millipore Milliplex Cell Signaling Assay. […] Data were confirmed by western blot (FIG. 6D).
as §1

Assay [3] has as its system C57BL/6 mice transplanted with BALB/c hearts. It is filed as in vivo, mouse. The conditions noted are these: oATP-treated cardiac-transplanted mice.
Method: The effect of P2X7R targeting in preventing cardiac transplant rejection was tested using the P2X7R inhibitor oATP.
The effect of P2X7R targeting in preventing cardiac transplant rejection was tested by using the P2X7R inhibitor oATP.
Assay [4] has as its system STAT3. The assay is described as follows: STAT3 phosphorylation in CD4+ T cells of cardiac-transplanted mice (Western blot). It is filed as in vivo, mouse. The note with it: 7 days after transplantation. As for the experimental part:
as §1

The subject of assay [5] is PBMCs obtained from healthy control subjects. In words: ELISPOT, human PBMCs challenged with allogeneic irradiated PBMCs. In kind it is cell-based.
Another assay relates to CD4+ and CD8+ T cells. In words: IFN-γ production of CD4+ and CD8+ T cells with Bz-ATP. In kind it is cell-based, mouse.
Assay [6] has as its system B6 recipients of BALB/c lung allografts. In words: Mouse orthotopic lung transplant, BALB/c donor and C57BL/6 recipient. In kind it is in vivo.
Method: Orthotopic left lung transplants were performed as previously described {Bizargity, #22; Iken, #21}. Briefly, donor mice were anesthetized with ketamine and xylazine, intubated with a 22 G Angiocath, and ventilated with isoflurane/oxygen. Lungs were flushed with ice cold phosphate buffered saline, left lung harvested and cuffs placed in the pulmonary artery, pulmonary vein and bronchus. Recipient mice were anesthetized and ventilated with isoflurane/oxygen, and left lung transplants performed via a thoracotomy and implantation of the three-cuffed hilar structures. Transplanted lungs were harvested 15 to 60-70 days following transplantation.
Allografts were evaluated 15, 30, and 60-70 days after transplant.
Outcome Measures—In vivo assessment of transplanted lung function was performed by thoracic CT scan imaging and measuring peak airway pressures (PawP) as previously described {Bizargity, #22}. […] Flow cytometry and enzyme-linked immunosorbent spot assay (ELISPOT) for interferon (IFN)-γ and interleukin (IL)-4 were performed as previously described {Vergani, #25; Vergani, #9}.

Here are results for eight compounds from patent publication US11452781B2, “Method of preventing and treating type 1 diabetes, allograft rejection and lung fibrosis (by targeting the ATP/P2X7R axis)” (CHILDREN'S MEDICAL CENTER CORPORATION, priority 2013, dated 2022).

“Also recorded” adds a separate entry of the source.

`O=C(Nc1cc(C(=O)Nc2ccc(S(=O)(=O)O)cc2S(=O)(=O)O)cc(C(=O)Nc2ccc(S(=O)(=O)O)cc2S(=O)(=O)O)c1)Nc1cc(C(=O)Nc2ccc(S(=O)(=O)O)cc2S(=O)(=O)O)cc(C(=O)Nc2ccc(S(=O)(=O)O)cc2S(=O)(=O)O)c1` [NF 449]: in the assay on naïve CD4+ T-cells, the “anti-CD3-Ig/anti-CD28-Ig-mediated IFN-γ production” value is on record as “further suppression”. Besides, the “alloantigen-mediated IFN-γ production” value in the assay on C57BL/6 splenocytes is given as “failed to modulate”.
For the compound `O=C(Nc1cc(C(=O)Nc2ccc(S(=O)(=O)O)cc2)cc(C(=O)Nc2ccc(S(=O)(=O)O)cc2)c1)Nc1cc(C(=O)Nc2ccc(S(=O)(=O)O)cc2)cc(C(=O)Nc2ccc(S(=O)(=O)O)cc2)c1` [NF 110], the “alloantigen-mediated IFN-γ production” value in the assay with C57BL/6 splenocytes is on record as “failed to modulate”.
With `CO[C@H]1C[C@@H]2CC[C@@H](C)[C@@](O)(O2)C(=O)C(=O)N2CCCC[C@H]2C(=O)O[C@H]([C@H](C)C[C@@H]2CC[C@@H](O)[C@H](OC)C2)CC(=O)[C@H](C)/C=C(\C)[C@@H](O)[C@@H](OC)C(=O)[C@H](C)C[C@H](C)/C=C/C=C/C=C/1C` [Rapamycin], the “islet allograft mean survival time (MST)” value in assay [1] was 19 days; in assay [1] (listed as rapamycin), 18 days.
Turning to `O=C1CN=C(c2cccc(Br)c2)c2oc3ccccc3c2N1` [5-BDBD], the “anti-CD3-Ig/anti-CD28-Ig-mediated IFN-γ production” value with naïve CD4+ T-cells is “further suppression”.
Regarding Colivelin, the “reversal of oATP-mediated suppression of IFN-γ-producing cells” value in the assay with naïve CD4+ T-cells (Colivelin added to oATP-treated cells) is on record as “significantly revert; also recorded: partially reverted”. Moreover, the “activation-induced phosphorylation of STAT3 in oATP-treated CD4+ T cells” value in the assay on STAT3 [2] is “restore”. In addition, in assay [3], the “effect of Colivelin on oATP-mediated allograft survival” value is recorded as “greatly abrogated the effect of oATP”. Moreover, the “phosphorylated STAT3 in CD4+ T cells” value in the assay on STAT3 [4] was “reestablish STAT3 phosphorylation”.
Turning to `COC[C@H](O)Cn1c(=O)cnn(-c2ccc(Cl)c(C(=O)NCC3(O)CCCCCC3)c2)c1=O` [CE-224535], in assay [5], the “allo- and autoimmune responses ex vivo” value was “inhibition”.
As to `Nc1ncnc2c1ncn2[C@@H]1O[C@H](COP(=O)(O)OP(=O)(O)OP(=O)(O)O)[C@@H](OC(=O)c2ccc(C(=O)c3ccccc3)cc2)[C@H]1O` [Bz-ATP, benzoyl-ATP], the IFN-γ production entry with CD4+ and CD8+ T cells (1 mmol/L Bz-ATP, T cells from wildtype mice) is “increased”; in the assay with CD4+ and CD8+ T cells (T cells from P2X7R2/2 mice), “similarly stimulated”.
For the compound `Cc1ccc(C(=O)Nc2ccc(S(=O)(=O)O)c3cc(S(=O)(=O)O)cc(S(=O)(=O)O)c23)cc1NC(=O)c1cccc(NC(=O)Nc2cccc(C(=O)Nc3cc(C(=O)Nc4ccc(S(=O)(=O)O)c5cc(S(=O)(=O)O)cc(S(=O)(=O)O)c45)ccc3C)c2)c1` [suramin], in [6] (15, 30 and ≥60 days after transplantation), the “acute cellular rejection (ACR grade)” value was “reduction”. Besides, the “lung function (PawP)” value in assay [6] (15 to ≥60 days) is “improved”.
